The test system of data set [1] is HIV-1IIIB. The data set can be described thus: HIV-1 antiviral assay (CPE reduction, MTS staining). It counts as cell-based. The settings on record: test peptide 10 micrograms per ml; 6 days post-infection; triplicate.
The test system of data set [2] is Pseudomonas aeruginosa. It counts as cell-based. The settings on record: 5 micrograms per ml.
Data set [3] concerns Streptococcus pneumoniae. It counts as cell-based. The settings on record: 5 micrograms per ml.
Data set [4] deals with MRSA. The settings on record: 5 micrograms per ml.
A short description of data set [5]: in vitro. To be noted: human, CEM-SS cells (uninfected, cells plus peptide only).
Data set [6] in a line: in vitro. To be noted: human, MRC-5 cells (embryonal lung fibroblasts).
Data set [7] is described as follows: Cytotoxicity in the HBV assay (dye uptake cell viability). The settings on record: human.

In the case of `Cc1cn([C@H]2C[C@H](N=[N+]=[N-])[C@@H](CO)O2)c(=O)[nH]c1=O` [AZT], in data set [1], the “% CPE reduction in HIV-1 infected CEM-SS cells” value came to 99%.
In the case of `CC[C@H](C)[C@H](NC(=O)[C@H](Cc1ccccc1)NC(=O)[C@H](CCC(=O)O)NC(=O)[C@H](CCCCN)NC(=O)[C@H](C)NC(=O)[C@H](C)NC(=O)[C@H](CCC(N)=O)NC(=O)CNC(=O)[C@H](CCC(=O)O)NC(=O)[C@H](CC(C)C)NC(=O)[C@H](Cc1ccc(O)cc1)NC(=O)[C@H](CO)NC(=O)[C@H](CO)NC(=O)[C@@H](NC(=O)[C@H](CC(=O)O)NC(=O)[C@H](CO)NC(=O)[C@@H](NC(=O)[C@H](Cc1ccccc1)NC(=O)[C@@H](NC(=O)CNC(=O)[C@H](CCC(=O)O)NC(=O)[C@H](C)NC(=O)[C@H](Cc1c[nH]cn1)NC(=O)[C@H](CCCNC(=N)N)NC(=O)[C@H](CCC(=O)O)NC(=O)[C@H](Cc1ccccc1)NC(=O)[C@H](CCC(=O)O)NC(=O)[C@H](CC(=O)O)NC(=O)[C@@H](N)Cc1c[nH]cn1)[C@@H](C)O)[C@@H](C)O)C(C)C)C(=O)N[C@@H](C)C(=O)N[C@@H](Cc1c[nH]c2ccccc12)C(=O)N[C@@H](CC(C)C)C(=O)N[C@H](C(=O)N[C@@H](CCCCN)C(=O)NCC(=O)N[C@@H](CCCNC(=N)N)C(=O)NCC(=O)O)C(C)C` [GLP-1], the “% inhibition” value in data set [2], in data set [3] and in data set [4] was 0.0% in each case. For the same molecule, the viability at 10 micrograms per ml in data set [5] is 100%. This molecule displayed a viability at 144 h in data set [6] of 100%. Besides, the viability at 144 h, 10 micrograms per ml in data set [7] turned out to be 95.8%.

The values above are taken from US20100311643A1, “USE OF GLP-1 AS A THERAPEUTIC AGENT” (priority 2007, published 2010).
